In patent publication US20260042764A1, “COMPOSITIONS AND METHODS FOR INHIBITION OF KRAS” (TheRas, Inc., priority 2022, published 2026):

Columns and labels:
[1] = molecular target: T1, Avi-KRAS G12D (1-169) GppNHp/RAF1 RBD-3xFLAG (52-151) (Homo sapiens, UniProt P01116, G12D); experiment: Raf1-KRAS G12D-GppNHP disruption HTRF assay (Biological Example 1); format: binding; conditions: KRAS G12D, GppNHp-loaded; Table 11
T1 construct: Avi-KRAS G12D (1-169)
Summary of the method: (§1)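 Read-out is HTRF signal of the KRAS–RAF1 RBD complex, reported as percentage of activity relative to DMSO (100%). Protein mix and detection reagents each incubated 1 h at room temperature with 700 rpm shaking. Buffer: 50 mM Tris pH 7.5, 100 mM NaCl, 5 mM MgCl2, 0.1% BSA, 0.01% Tween, 10% DMSO.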

[2] = molecular target: T2, Avi-KRAS G12R (1-169) GppNHp/RAF1 RBD-3xFLAG (52-151) (Homo sapiens, UniProt P01116, G12R); experiment: Raf1-KRAS G12R-GppNHP disruption HTRF assay (Biological Example 1); format: binding; conditions: KRAS G12R, GppNHp-loaded; Table 11
T2 construct: Avi-KRAS G12R (1-169)
T2 sequence (P01116 1-169 isoform P01116-2 G12R): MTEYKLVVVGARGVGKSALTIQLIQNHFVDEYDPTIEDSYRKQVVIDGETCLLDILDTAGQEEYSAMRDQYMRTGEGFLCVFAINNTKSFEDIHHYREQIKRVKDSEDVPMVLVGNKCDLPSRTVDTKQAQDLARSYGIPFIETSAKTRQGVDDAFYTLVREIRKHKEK
Summary of the method: as §1

[3] = molecular target: T3, Avi-KRAS G12V (1-169) GppNHp/RAF1 RBD-3xFLAG (52-151) (Homo sapiens, UniProt P01116, G12V); experiment: Raf1-KRAS G12V-GppNHP disruption HTRF assay (Biological Example 1); format: binding; conditions: KRAS G12V, GppNHp-loaded; Table 11
T3 construct: Avi-KRAS G12V (1-169)
T3 sequence (P01116 1-169 isoform P01116-2 G12V): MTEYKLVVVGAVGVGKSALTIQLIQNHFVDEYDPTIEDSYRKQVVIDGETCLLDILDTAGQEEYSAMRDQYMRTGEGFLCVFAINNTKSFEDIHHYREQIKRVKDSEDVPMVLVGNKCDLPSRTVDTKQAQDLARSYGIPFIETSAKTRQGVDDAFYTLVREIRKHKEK
Summary of the method: as §1

[4] = molecular target: T4, Avi-KRAS WT (1-169) GppNHp/RAF1 RBD-3xFLAG (52-151) (Homo sapiens, UniProt P01116); experiment: Raf1-KRAS WT-GppNHP disruption HTRF assay (Biological Example 1); format: binding; conditions: KRAS WT, GppNHp-loaded; Table 11
T4 construct: Avi-KRAS WT (1-169)
T4 sequence (P01116 1-169 isoform P01116-2): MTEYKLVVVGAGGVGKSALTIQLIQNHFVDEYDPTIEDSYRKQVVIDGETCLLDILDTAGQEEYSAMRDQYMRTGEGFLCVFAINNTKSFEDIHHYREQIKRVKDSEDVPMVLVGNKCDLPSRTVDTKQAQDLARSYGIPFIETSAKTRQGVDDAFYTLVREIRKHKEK
Summary of the method: as §1

GP2d cells (KRAS G12D) = experiment: Cell-based pERK HTRF assay in GP2d cell (Biological Example 2); conditions: GP2d, GP2d (KRAS G12D) cells, pERK HTRF
Summary of the method: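 HTRF read-out of pERK (excitation 320 nm, emission 615 nm) after lysates sat 4–24 h at room temperature with Eu cryptate and d2 antibodies.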

T1 sequence (P01116 1-169 isoform P01116-2 G12D): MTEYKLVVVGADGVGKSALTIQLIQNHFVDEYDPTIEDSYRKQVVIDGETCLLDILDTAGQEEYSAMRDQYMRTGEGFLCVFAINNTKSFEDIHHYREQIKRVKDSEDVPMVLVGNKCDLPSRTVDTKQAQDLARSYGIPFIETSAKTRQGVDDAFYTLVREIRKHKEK

| SMILES | IC50 [1] | IC50 [2] | IC50 [3] | IC50 [4] | IC50 (GP2d cells (KRAS G12D)) |
| --- | --- | --- | --- | --- | --- |
| N#Cc1c(N)sc2c(F)ccc(-c3c(C(F)(F)F)cc4c(N5C[C@H](F)[C@@H](F)C5)nc(OC[C@@]56CCCN5C[C@H](F)C6)nc4c3F)c12 [Compound 158] | 100 to 1000 nM | 100 to 1000 nM | 100 to 1000 nM | 100 to 1000 nM | < 100 nM |
| C[C@@H]1CN(c2nc(OC[C@@]34CCCN3C[C@H](F)C4)nc3c(F)c(-c4ccc(F)c5sc(N)c(C#N)c45)c(C(F)(F)F)cc23)C[C@H](C)O1 [Compound 143] | 100 to 1000 nM | 1000 to 10000 nM | 1000 to 10000 nM | 100 to 1000 nM | 100 to 1000 nM |
| CN(CCCO)c1nc(OC[C@@]23CCCN2C[C@H](F)C3)nc2c(F)c(-c3ccc(F)c4sc(N)c(C#N)c34)c(C(F)(F)F)cc12 [Compound 73] | 100 to 1000 nM | 100 to 1000 nM | 100 to 1000 nM | 100 to 1000 nM | < 100 nM |
| CCN(c1nc(OC[C@@]23CCCN2C[C@H](F)C3)nc2c(F)c(-c3ccc(F)c4sc(N)c(C#N)c34)c(C(F)(F)F)cc12)[C@H]1C[C@@H](O)C1 [Compound 26, 2-amino-4-[4-[ethyl-(3-hydroxycyclobutyl)amino]-8-fluoro-2-[[(2R,8S)-2-fluoro-1,2,3,5,6,7-hexahydropyrrolizin-8-yl]methoxy]-6-(trifluoromethyl)quinazolin-7-yl]-7-fluoro-benzothiophene-3-carbonitrile] | < 100 nM | 100 to 1000 nM | 100 to 1000 nM | 100 to 1000 nM | < 100 nM |
| N#Cc1c(N)sc2c(F)ccc(-c3c(C(F)(F)F)cc4c(N5C[C@@H](F)[C@@H](F)C5)nc(OC[C@@]56CCCN5C[C@H](F)C6)nc4c3F)c12 [Compound 157] | 100 to 1000 nM | 100 to 1000 nM | 1000 to 10000 nM | 100 to 1000 nM | < 100 nM |
| CO[C@@H]1C[C@@H](COc2nc(N(C)C3CC(O)C3)c3cc(C(F)(F)F)c(-c4ccc(F)c5sc(N)c(C#N)c45)c(F)c3n2)N(C)C1 (stereo partly shown) [Compound 40] | 100 to 1000 nM | 100 to 1000 nM | 100 to 1000 nM | 100 to 1000 nM | < 100 nM |

Results, then the compound that gave them:

| IC50 [1] | IC50 [2] | IC50 [3] | IC50 [4] | IC50 (GP2d cells (KRAS G12D)) | SMILES |
| --- | --- | --- | --- | --- | --- |
| < 100 nM | 100 to 1000 nM | 100 to 1000 nM | < 100 nM | < 100 nM | N#Cc1c(N)sc2c(F)ccc(-c3c(C(F)(F)F)cc4c(N5CC[C@@H]5CO)nc(OC[C@@]56CCCN5C[C@H](F)C6)nc4c3F)c12 [Compound 168] |
| 100 to 1000 nM | 100 to 1000 nM | 100 to 1000 nM | 100 to 1000 nM | < 100 nM | CC(=O)N1CC[C@H](N(C)c2nc(OC[C@@]34CCCN3C[C@H](F)C4)nc3c(F)c(-c4ccc(F)c5sc(N)c(C#N)c45)c(C(F)(F)F)cc23)[C@H]1C [Compound 191] |
| 100 to 1000 nM | 100 to 1000 nM | 100 to 1000 nM | 100 to 1000 nM | < 100 nM | CN(CC(F)F)c1nc(OC[C@@]23CCCN2C[C@H](F)C3)nc2c(F)c(-c3ccc(F)c4sc(N)c(C#N)c34)c(C(F)(F)F)cc12 [Compound 164] |
| 100 to 1000 nM | 100 to 1000 nM | 100 to 1000 nM | 100 to 1000 nM | < 100 nM | CCN(CCC#N)c1nc(OC[C@@]23CCCN2C[C@H](F)C3)nc2c(F)c(-c3ccc(F)c4sc(N)c(C#N)c34)c(C(F)(F)F)cc12 [Compound 166] |
| 100 to 1000 nM | 100 to 1000 nM | 100 to 1000 nM | 100 to 1000 nM | < 100 nM | N#Cc1c(N)sc2c(F)ccc(-c3c(C(F)(F)F)cc4c(N5CC[C@H]5CO)nc(OC[C@@]56CCCN5C[C@H](F)C6)nc4c3F)c12 [Compound 169] |
